“And” between values parts separate entries of the source, which are not always exact repeats. Equal values may be shown once. “Also recorded” adds a separate entry of the source.
Assays:
DIFI cells = assay: MTT cytotoxicity, DIFI cells; assay type: cell-based, human
Method: (§1) Cell Lines. MDA-Panc3 cells(pancreas carcinoma), DiFi cells (colon carcinoma), and KB cells (squamous carcinoma) were used for in vitro data.
(§2) Cytotoxicity Assay. 8,000 cells/well in 135 ul of Dubelco's MEM with 10% fetal bovine serum (FBS) was added to 96-well culture plates. The plates were incubated for 14 h at 37° in the presence of 5% CO2. 15 µL of CPT, liposomal CPT (L-CPT), and empty liposomes (ELs) with CPT were added in concentrations of […] CPT. Lipids were added to each sample (5-25:1 lipid:drug weight ratio). The cells were incubated in the presence of drug for 24 to 120 h. After […] of 5 mg/ml MTT in PBS was added to the samples, the cells were incubated at 37° for 2 h. 100 µL of lysis buffer (50 ml DMF, 20 gm SDS, to total volume 100 ml with water, adjusted to pH 4.7 with NaOH) was added to each well. Plates were incubated for 14h at 37°, then read at 570 nm in a kinetic microplate reader. A dose of 0.1 M blank lipid was used as a control for 100% survival.
(§3) LC-CPT consisting of 12.5:1 DO-NGPE:CPT was used for in vitro assays of cytotoxicity. Lethal cellular injury induced by CPT requires prolonged exposure, cytotoxicity of L-CPT and controls were determined at 24, 72, and 120 hr intervals of continuous drug exposure.

KB cells = assay: MTT cytotoxicity, KB cells; assay type: cell-based, human
Method: as §1, §2, §3

MDA-Panc3 cells = assay: MTT cytotoxicity, MDA-Panc3 cells; assay type: cell-based, human; conditions: 24-120 h
Method: as §1, §2, §3

P388 leukemia = assay: Survival of mice inoculated IP with P388 leukemia; assay type: in vivo, mouse (B6D2Fl); conditions: for long-term survivors, percent: FIG. 5b; for % T/C: 24 h after inoculation
L1210 leukemia = assay: Survival of mice inoculated IP with L1210 leukemia; assay type: in vivo, mouse (B6D2Fl); conditions: for % T/C: 24 h after inoculation
Method: In Vivo Protocol. B6D2Fl mice (Charles River Laboratories, Wilmington, Mass., U.S.A.) were injected with […] L1210 leukemia cells via the intraperitoneal route. A single intraperitoneal treatment with ELs, CPT, L-CPT, ELs +CPT was administered 24 hours after tumor inoculation. Five animals were used in each group except for the control group which consisted of 7 untreated mice.
Statistical Considerations. Animal survival data was plotted using the method described by Kaplan and Meier (Kaplan and Meier, 1958):
Because LC-CPT appeared to have improved potency compared to free CPT and LC-CPT caused early death at the highest doses, mice inoculated with L1210 leukemia were treated with doses of 30 to 60 mg/kg free CPT or 10 to 20 mg/kg of LC-CPT (Table 6). […] One animal treated with 15 mg/kg free CPT plus lipid survived 50 days.

[1] = Organ distribution after i.v. administration; assay type: in vivo, mice
Solubility of CPT = assay type: physicochemical
Description: Some lipophilic drugs such as taxol and taxotere can be solubilized by mild detergents, surfactants and alcohol- containing solutions; however, no similar vehicle has been identified for CPT lactone. […] Solutions containing chloroform and methanol can solubilize CPT, but are too toxic for clinically relevant studies.

[2] = it has been shown; cited from earlier work
[3] = Lipids screened for complexation with CPT (fluorescent microscopy; % bound); assay type: physicochemical
Description: In order to prepare LC-CPT (a liposomal preparation containing CPT within spherical lipid vesicles) various individual lipids were screened for complexation with CPT. […] CPT crystals and lipid/CPT complexes of >0.4 microns can be visualized under a fluorescent microscope (since CPT fluoresces due to its rigid ring structure). […] Therefore, the better a lipid complexes with CPT the less CPT crystals are formed, and the more lipid/CPT complexes are formed.
Drug/lipid Complex Preparation. CPT was mixed in ratios of from 2:1 to 25:1 w/w lipid:drug in chloroform-methanol (8:1). For studies where CPT was radiolabeled, approximately 0.02 uCi/ml [^3 H] CPT was added to the preparation. Trace quantities of ^14 C labeled cholesterol was added to samples requiring lipid labeling. For small samples, the lipids were dried in 12×75 mm culture tubes under a stream of nitrogen gas. For large samples, a rotavapor (Buchi RE140, Switzerland) was used to dry lipids in a 100 to 1000 ml round bottom flasks. […] For liposomal CPT 0.9% Nace was used. Preparations were screened for lipid entrapment by light and fluorescent microscopy (Nikon Labophot-2, Japan). […]
Lipids of varying carbon chain length, charge, and saturation, alone or in different combinations, were empirically screened for their ability to form liposomes incorporating CPT by fluorescent microscopy.

[4] = Chromatographic evaluation of CPT in the liposome fraction; assay type: physicochemical; conditions: lipid used alone
Method: Chromatography. A 30 cm agarose 0.5M column is used to separate liposome-bound drug from free CPT. PBS is used as the mobile phase for all preparations. Twenty samples were collected in 3 mL aliquots for a total of 60 mLs. Fluorescence and scintigraphy were used to detect encapsulated and free drug. Fluorimetry. Aliquots of 20 μl from each collection tube were transferred to cuvets containing 2 ml methanol. Fluorimetry was performed as described by Hart et al. (Hart et al., 1969). Fluorescence was measured at an excitation wavelength of 370 nm and emission wavelength of 434 nm (Perkin-Elmer MPF44A, Norwalk, Conn., U.S.A.). Two ml of ethanol was used as a control for machine calibration.
Chromatographic evaluation confirmed that <5% of CPT was incorporated in the liposome fraction of the preparation, the rest presumably being solubilized or in small particles not detectable by fluorescence microscopy.
(§4) These observation led the present inventors to other negatively charged lipids. […] Chromatographic evaluation of these preparations confirmed again that <5% of CPT eluted with the liposome fraction, the rest of the drug eluting later in a large number of consecutive fractions. By differential centrifugation, the lipid-binding efficiency of cardiolipin was about 67% and that of DO-NGPE 97%. DO-NGPE-CPT was, therefore, selected for further biological and pharmacological studies.

[5] = Lipid-binding efficiency by differential centrifugation; assay type: physicochemical
Method: Determination of Entrapment Efficiency.
A modification of the Ficoll flotation method for separating entrapped from free drug was used (Fraley et al.). […] samples were added to 12×75 mm culture tubes. One ml of 30% Ficoll was layered on the liposome preparation, then one ml of PBS was layered on top of the Ficoll. The tube was spun for 30 min at 3400 rpm in Sorvall GS2-B swing rotor. The percent entrapment was calculated with the formula: [formula]
as §4

[6] = tested on: KB, MDA-Panc3, and DIFI cell lines; assay: MTT cytotoxicity, KB, MDA-Panc3 and DIFI cell lines taken together; assay type: cell-based, human
Method: as §1, §2, §3

SMILES: CC[C@@]1(O)C(=O)OCc2c1cc1n(c2=O)Cc2cc3ccccc3nc2-1 [CPT, Camptothecin]
- cytotoxicity (in words) (DIFI cells; 24-120 h): significantly more toxic to cells at a concentration of 1M compared to 0.1M
- cellular viability (DIFI cells; 120 h): approximately 40%
- cytotoxicity (in words) (KB cells; 24 h): somewhat more sensitive to CPT at 24 h than DIFI cells
- cellular viability (KB cells; 120 h): approximately 40%
- cytotoxicity (in words) (MDA-Panc3 cells): modestly sensitive; also recorded: significantly more toxic to cells at a concentration of 1 μmol compared to 0.1 μmol; also recorded: somewhat more sensitive to CPT at 24 h than DIFI cells
- long-term survivors, percent (P388 leukemia; IP, 20 mg/Kg): 20%
- long-term survivors, percent (P388 leukemia; IP, 40 mg/Kg): 60%
- treatment-related deaths / toxicity at 40 mg/kg (P388 leukemia; IP, 40 mg/kg CPT): one treatment related death (day 8)
- antitumor activity, P388 (in words) (P388 leukemia; P388, IP): No activity
- 50-day survivors (P388 leukemia; P388, IP, 10 mg/kg CPT): none
- % T/C (P388 leukemia; P388, IP, 10 mg/kg CPT): 121%
- 50-day survivors (P388 leukemia; P388, IP, 20 mg/kg CPT): none
- % T/C (P388 leukemia; P388, IP, 20 mg/kg CPT): 100%
- 50-day survivors / long-term survivors (P388 leukemia; P388, IP, 40 mg/kg CPT, 40 mg/kg): 3 and 3/5
- %T/C, similar antitumor activity compared (P388 leukemia; P388, IP, dose not given): 207%
- antitumor activity / survival, L1210 (in words) (L1210 leukemia): inactive
- 50-day survivors (L1210 leukemia; 30 mg/kg CPT): 0
- % T/C (L1210 leukemia; 30 mg/kg CPT): 85%
- 50-day survivors (L1210 leukemia; 45 mg/kg CPT): 0
- % T/C (L1210 leukemia; 45 mg/kg CPT): 85%
- 50-day survivors (L1210 leukemia; 60 mg/kg CPT): 0
- % T/C (L1210 leukemia; 60 mg/kg CPT): 92%
- GI Tract level ([1]; 6 hrs, i.v. 10 mg/kg CPT): 2.562 ± 0.515 μg/ml or μg/mg dry tissue
- Heart level ([1]; 6 hrs, i.v. 10 mg/kg CPT): 1.458 ± 0.555 μg/ml or μg/mg dry tissue
- Kidney level ([1]; 6 hrs, i.v. 10 mg/kg CPT): 0.443 ± 0.164 μg/ml or μg/mg dry tissue
- Liver level ([1]; 6 hrs, i.v. 10 mg/kg CPT): 2.077 ± 0.402 μg/ml or μg/mg dry tissue
- Lung level ([1]; 6 hrs, i.v. 10 mg/kg CPT): 38.217 ± 3.061 μg/ml or μg/mg dry tissue
- GI Tract level ([1]; 24 hrs, i.v. 10 mg/kg CPT): 0.492 ± 0.148 μg/ml or μg/mg dry tissue
- Heart level ([1]; 24 hrs, i.v. 10 mg/kg CPT): 0.228 ± 0.092 μg/ml or μg/mg dry tissue
- Kidney level ([1]; 24 hrs, i.v. 10 mg/kg CPT): 0.539 ± 0.428 μg/ml or μg/mg dry tissue
- Liver level ([1]; 24 hrs, i.v. 10 mg/kg CPT): 0.429 ± 0.124 μg/ml or μg/mg dry tissue
- Lung level ([1]; 24 hrs, i.v. 10 mg/kg CPT): 12.276 ± 5.363 μg/ml or μg/mg dry tissue
- drug level in the lungs, free CPT relative to LC-CPT ([1]; i.v.): about 180 -fold
- biodistribution / clearance (in words) ([1]; i.v., mice, listed as free CPT): rapidly cleared from the blood; also recorded: Heart and kidney levels of free CPT were higher than those of LC-CPT
- concentration at 6 h ([1]; mouse, in vivo, iv, 6 hrs, i.v. 10 mg/kg CPT, read-out: Blood level): 69 ± 39 ng/mL
- concentration at 24 h ([1]; mouse, in vivo, iv, 24 hrs, i.v. 10 mg/kg CPT, read-out: Blood level): 8 ± 12 ng/mL
- aqueous solubility (in words) (Solubility of CPT): poor aqueous solubility
- solubility in DMSO, Tween-20, cremophor, and methanol (in words) (Solubility of CPT; CPT lactone): crystallization and precipitation of drug occurs
- activity of closed-lactone form relative to sodium salt [2]: 10 fold

SMILES: CCCCCCCC/C=C\CCCCCCCC(=O)OCC(COP(=O)(O)OCCNC(=O)CCCC(=O)O)OC(=O)CCCCCCC/C=C\CCCCCCCC (centres unmarked) [Dioleoyl-NGPE, dioleoyl-N-glutaryl-phosphatidyl ethanolamine]
- Crystals ([3]; Table 1, lipid alone with CPT, fluorescent microscopy): no
- interaction with CPT (in words) ([3]; listed as DO-NGPE): homogeneous and milky preparations devoid of drug crystals; also recorded: most favorable interaction
- CPT incorporated in / eluted with the liposome fraction [4]: < 5%
- lipid-binding efficiency [5]: 97%
- antitumor activity in vitro (in words) [6]: does not appear to have any intrinsic antitumor activity and does not inhibit the effects of CPT
